How the values were obtained:
Format in all cases: cell-based
NIH-3T3 fibroblast cells = assay: Cell migration/motility assay, 3T3/TAXOL; details: 2 hours and 5 hours after removal of first layer, versus control cells
Source text: The cell migration/motility assay of the present invention allows one to study the effect of test agents and others both on cell motility and on cell shape. For example, cells may be patterned through micro-orifices, such as micro-orifices 300, of the first layer 150. The cells are allowed to attach to the support 140 and to grow to confluence. The walls of the micro-orifice 300 constrain the cell(s) and the cells take on the shape of the micro-orifice 300, e.g., circular. A test agent is applied through the micro-orifices 300 and is allowed to contact the cells. The first layer 150 is removed and the cells are observed. If the test agent affects cell movement, the cell will be “stuck” in place as it was patterned and may not change shape, i.e., it will remain circular if the patterning member had circular orifices. […] FIG. 15(b) is a graph of the effect of various concentrations of taxol on cell movement as performed by a cell migration/motility assay of the present invention.
Macro-wells orifices of a stencil engaged with a support were filled with PBS and a vacuum was applied for two minutes to remove air bubbles. NIH-3T3 fibroblast cells (prelabeled with green cell tracker, CMFDA, Molecular Probes) were collected in DMEM/10% bovine calf serum and plated in the macro-wells at a concentration of 2×10^4 cells/cm2. After one hour, unadhered cells were washed off with fresh medium. […]

[1] = system: Human microvasular endothelial cells from lung (HMVEC-L); assay: Microtubule experiments, cell motility/patterning assay; details: circular micro-orifice, versus control; agents 10 mg/ml in Example 8
Method: Alternatively, the test agent can be added before the cells have grown to confluency, i.e. the test agent is added to the cells before being patterned through the micro-orifices 300. If the test agent has no effect on cell motility, the cells will spread and achieve the shape of the micro-orifice 300. In FIGS. 16 and 17, a micro-orifice 300 is circular in shape. In the left column of FIGS. 16 and 17 are the control panel, which illustrate the cells having grown to a confluent circular pattern.
A first layer 150 having multiple orifices was applied to a support 140. The orifices ([…]) were rendered inert to the adsorption of proteins and the adhesion of cells using the standard procedures described in earlier disclosures: silanes terminated with ethylene glycol groups were reacted covalently with the surface of the PDMS devices. The stencil was washed three times with PBS, and vacuum was applied for two minutes to remove air bubbles. Human microvasular endothelial cells from lung (HMVEC-L, Clonetics/Biowhittaker), were seeded into the macro-wells of the stencil at a density of 5×10^3 cells/cm2 into the dishes in growth medium (EGM, Clonetics/Biowhittaker), and washed with fresh medium after an initial attachment period of 30 minutes to one hour. After an overnight incubation in the membranes, cells were treated with the following microtubule-disrupting agents: nocodazole (10 mg/ml), colchicine (10 mg/ml), vinblastine (10 mg/ml), or paclitaxel (10 mg/ml). Control cells were left untreated. Two different experiments were then performed. In the first experiment, cells were treated with the compounds while maintained within the macro-wells of the stencil. After two hours of treatment, the cells were imaged, the stencil was peeled off, and the cells were fixed with cold methanol (−20° C.) for ten minutes and washed three times with PBS. Immunofluorescence staining was performed using a monoclonal antibody to alpha-tubulin (1:100 dilution, DM1a, Sigma), followed by a FITC-conjugated goat anti-mouse antibody (25 mg/ml, Rockland Immunochemicals) and DAPI (3 mg/ml, Sigma) to stain the nucleus. Stained cells were mounted under a glass coverslip with Fluoromount G (Southern Biotechnology Associates) and imaged in a Zeiss fluorescence microscope.
In the second experiment, the stencil was peeled at the time of compound addition. After two hours of treatment, one set of samples was fixed and stained as described above. Another set of samples was left in the treatment compound and imaged over time, to monitor cell motility. Images were taken at 0, 2, 4, 8, and 24 hours. Cell motility was determined by taking the average diameter of the micro-regions, using ImageProPlus imaging software.

[2] = system: SVR (H-ras-overexpressing derivative of MS1); assay: Farnesyl transferase inhibition, cell motility assay in SVR; details: SVR cells, FTI-277 10 mm, time zero and four hours, versus control
Method: (§1) Using standard protocols, MS1 (T antigen-immortalized endothelial cells, ATCC) and SVR (H-ras-overexpressing derivative of MS1, ATCC) were plated into macrowells at densities of 12×10^3 and 6×10^3 cells/cm^2, respectively, in DMEM/5% fetal bovine serum. Unattached cells were washed off after 1 hour, and the cells were replenished with fresh media. To the media was also added farnesyl transferase inhibitor (FTI-277, Calbiochem) to concentration of […]. Cells were cultured overnight under fresh media in an incubator at 37° C. and 5% CO2. At the start of experiment, the stencil/first layer was removed after first on the support to allow cell migration. At different time points (time zero and time four hours) images were taken and analyzed for effects of FTI-277 on cell motility. FIG. 21 contains the pictorial results of an assay showing farnesyl transferase inhibition in MS1 and SVR cells.

[3] = system: MS1 (T antigen-immortalized endothelial cells); assay: Farnesyl transferase inhibition, cell motility assay in MS1; details: FTI-277 10 mm, time zero and four hours, versus control
Method: as §1

[4] = system: 769-P cells (renal carcinoma); assay: Inhibition of cell motility of renal cells via MMP inhibition, 769-P; details: various concentrations
Method: (§2) Two renal cell lines were used to study the effect of matrix metalloproteinase (MMP) inhibition on cell motility. Standard protocols were used to plate 100 769-P cells (renal carcinoma, purchased from ATCC) and HK-2 (proximal tubule cells from human kidney, from ATCC) in qualitative cell migration assay plate.
(§3) After allowing the cells to attach and spread for 8 hours, the stencil and the first layer were removed and MMP inhibitor (GM6001, Calbiochem) was added at various concentrations.

[5] = system: HK-2 (proximal tubule cells from human kidney); assay: Inhibition of cell motility of renal cells via MMP inhibition, HK-2; details: HK-2, various concentrations
Method: as §2, §3

endothelial cells = assay: Cell motility assay using endothelial cells with agonists and antagonists (FIG. 25); details: FIG. 25A
Method: FIG. 25 depicts a particular cell motility assay using endothelial cells and agonists and antagonists of such cells. […] In FIG. 25B, the concentration of VEGF is fixed. An antibody to VEGF is added in various concentrations. […] When an inhibitor to the VEGF receptor is added, the cells migrate at a such slower rate as depicted in FIG. 25C. […] Normally enzyme inhibition screens involve proteins and their substrates and not cells. FIG. 25D depicts enzyme inhibition screens in a cell based context.

Q: Which “cell movement away from original pattern” value (NIH-3T3 fibroblast cells) does the source give for `CC(=O)O[C@H]1C(=O)[C@@]2(C)[C@H]([C@H](OC(=O)c3ccccc3)[C@]3(O)C[C@H](OC(=O)[C@H](O)[C@@H](NC(=O)c4ccccc4)c4ccccc4)C(C)=C1C3(C)C)[C@]1(OC(C)=O)CO[C@@H]1C[C@@H]2O` [taxol, paclitaxel] here?
A: Its value is “retained their original circular pattern”.

Q: What about the “cellular movement / achieving circular confluent pattern” value [1] of the same compound?
A: Its value is “cellular movement arrested”.

Q: How did the “cell migration away from original starting positions” value [2] turn out when `COC(=O)[C@H](CCSC)NC(=O)c1ccc(NC[C@@H](N)CS)cc1-c1ccccc1` [FTI-277] was run?
A: Its value is “control cells are shown to have migrated further away from their original starting positions than the cells treated with FTI”.

Q: What about the “cell migration away from original starting positions” value [3] of the same compound?
A: The value was “control cells are shown to have migrated further away from their original starting positions than the cells treated with FTI”.

Q: What does the source list for `CNC(=O)[C@H](Cc1c[nH]c2ccccc12)NC(=O)[C@@H](CC(=O)NO)CC(C)C` [GM6001]?
A: cell motility [4]: reduces cell motility; cell motility [5]: no effect

Q: How did the cell migration (endothelial cells) turn out when VEGF was run?
A: The cell migration was “stimulates cells to migrate”.

Q: Which “cellular movement / achieving circular confluent pattern” value [1] does the source give for `COc1cc2c(c(OC)c1OC)-c1ccc(OC)c(=O)cc1[C@@H](NC(C)=O)CC2` [colchicine] here?
A: The value was “cellular movement arrested”.

Q: `COC(=O)Nc1nc2ccc(C(=O)c3cccs3)cc2[nH]1` [nocodazole] was tested. Which “cellular movement / achieving circular confluent pattern” value [1] did it give?
A: Its value is “cellular movement arrested”.

Q: With `CC[C@]1(O)C[C@@H]2CN(CCc3c([nH]c4ccccc34)[C@@](C(=O)OC)(c3cc4c(cc3OC)N(C)[C@H]3[C@@](O)(C(=O)OC)[C@H](OC(C)=O)[C@]5(CC)C=CCN6CC[C@]43[C@@H]65)C2)C1` [vinblastine] as the compound, how does the “cellular movement / achieving circular confluent pattern” value [1] read?
A: Its value is “cellular movement arrested”.

— US20070038384A1, “Devices and assays for monitoring/measuring cellular dynamics to create subject profiles from primary cells” (priority 2003, published 2007)
